Measured values taken from patent publication US11208412B2 (DAEGU-GYEONGBUK MEDICAL INNOVATION FOUNDATION, priority 2017, dated 2021).

Each molecule was assayed against T1, recombinant LRRK2 kinase (Homo sapiens, UniProt Q5S007) (assay: LRRK2 kinase inhibition (Kinase-Glo luminescence)). Details: IC50 grade; 25 μmol/L ATP, LRRKtide, 30° C. 2 hours; read-out: Enzyme activity LRRK2.
T1 construct: purchased Signal Chem, Richmond, BC, Canada
Format: biochemical
Procedure: Upon completion of the reaction, an equal amount of Kinase-Glo (Promega, Madison, Wis.) solution was added thereto, followed by reaction for 40 minutes. A detection solution was added thereto, followed by further reaction at room temperature for 30 minutes. Then, IC50 of kinase was calculated by measuring the amount of luciferase using a microplate ELISA reader (Bio-Tek).

T1 sequence (Q5S007 whole entry): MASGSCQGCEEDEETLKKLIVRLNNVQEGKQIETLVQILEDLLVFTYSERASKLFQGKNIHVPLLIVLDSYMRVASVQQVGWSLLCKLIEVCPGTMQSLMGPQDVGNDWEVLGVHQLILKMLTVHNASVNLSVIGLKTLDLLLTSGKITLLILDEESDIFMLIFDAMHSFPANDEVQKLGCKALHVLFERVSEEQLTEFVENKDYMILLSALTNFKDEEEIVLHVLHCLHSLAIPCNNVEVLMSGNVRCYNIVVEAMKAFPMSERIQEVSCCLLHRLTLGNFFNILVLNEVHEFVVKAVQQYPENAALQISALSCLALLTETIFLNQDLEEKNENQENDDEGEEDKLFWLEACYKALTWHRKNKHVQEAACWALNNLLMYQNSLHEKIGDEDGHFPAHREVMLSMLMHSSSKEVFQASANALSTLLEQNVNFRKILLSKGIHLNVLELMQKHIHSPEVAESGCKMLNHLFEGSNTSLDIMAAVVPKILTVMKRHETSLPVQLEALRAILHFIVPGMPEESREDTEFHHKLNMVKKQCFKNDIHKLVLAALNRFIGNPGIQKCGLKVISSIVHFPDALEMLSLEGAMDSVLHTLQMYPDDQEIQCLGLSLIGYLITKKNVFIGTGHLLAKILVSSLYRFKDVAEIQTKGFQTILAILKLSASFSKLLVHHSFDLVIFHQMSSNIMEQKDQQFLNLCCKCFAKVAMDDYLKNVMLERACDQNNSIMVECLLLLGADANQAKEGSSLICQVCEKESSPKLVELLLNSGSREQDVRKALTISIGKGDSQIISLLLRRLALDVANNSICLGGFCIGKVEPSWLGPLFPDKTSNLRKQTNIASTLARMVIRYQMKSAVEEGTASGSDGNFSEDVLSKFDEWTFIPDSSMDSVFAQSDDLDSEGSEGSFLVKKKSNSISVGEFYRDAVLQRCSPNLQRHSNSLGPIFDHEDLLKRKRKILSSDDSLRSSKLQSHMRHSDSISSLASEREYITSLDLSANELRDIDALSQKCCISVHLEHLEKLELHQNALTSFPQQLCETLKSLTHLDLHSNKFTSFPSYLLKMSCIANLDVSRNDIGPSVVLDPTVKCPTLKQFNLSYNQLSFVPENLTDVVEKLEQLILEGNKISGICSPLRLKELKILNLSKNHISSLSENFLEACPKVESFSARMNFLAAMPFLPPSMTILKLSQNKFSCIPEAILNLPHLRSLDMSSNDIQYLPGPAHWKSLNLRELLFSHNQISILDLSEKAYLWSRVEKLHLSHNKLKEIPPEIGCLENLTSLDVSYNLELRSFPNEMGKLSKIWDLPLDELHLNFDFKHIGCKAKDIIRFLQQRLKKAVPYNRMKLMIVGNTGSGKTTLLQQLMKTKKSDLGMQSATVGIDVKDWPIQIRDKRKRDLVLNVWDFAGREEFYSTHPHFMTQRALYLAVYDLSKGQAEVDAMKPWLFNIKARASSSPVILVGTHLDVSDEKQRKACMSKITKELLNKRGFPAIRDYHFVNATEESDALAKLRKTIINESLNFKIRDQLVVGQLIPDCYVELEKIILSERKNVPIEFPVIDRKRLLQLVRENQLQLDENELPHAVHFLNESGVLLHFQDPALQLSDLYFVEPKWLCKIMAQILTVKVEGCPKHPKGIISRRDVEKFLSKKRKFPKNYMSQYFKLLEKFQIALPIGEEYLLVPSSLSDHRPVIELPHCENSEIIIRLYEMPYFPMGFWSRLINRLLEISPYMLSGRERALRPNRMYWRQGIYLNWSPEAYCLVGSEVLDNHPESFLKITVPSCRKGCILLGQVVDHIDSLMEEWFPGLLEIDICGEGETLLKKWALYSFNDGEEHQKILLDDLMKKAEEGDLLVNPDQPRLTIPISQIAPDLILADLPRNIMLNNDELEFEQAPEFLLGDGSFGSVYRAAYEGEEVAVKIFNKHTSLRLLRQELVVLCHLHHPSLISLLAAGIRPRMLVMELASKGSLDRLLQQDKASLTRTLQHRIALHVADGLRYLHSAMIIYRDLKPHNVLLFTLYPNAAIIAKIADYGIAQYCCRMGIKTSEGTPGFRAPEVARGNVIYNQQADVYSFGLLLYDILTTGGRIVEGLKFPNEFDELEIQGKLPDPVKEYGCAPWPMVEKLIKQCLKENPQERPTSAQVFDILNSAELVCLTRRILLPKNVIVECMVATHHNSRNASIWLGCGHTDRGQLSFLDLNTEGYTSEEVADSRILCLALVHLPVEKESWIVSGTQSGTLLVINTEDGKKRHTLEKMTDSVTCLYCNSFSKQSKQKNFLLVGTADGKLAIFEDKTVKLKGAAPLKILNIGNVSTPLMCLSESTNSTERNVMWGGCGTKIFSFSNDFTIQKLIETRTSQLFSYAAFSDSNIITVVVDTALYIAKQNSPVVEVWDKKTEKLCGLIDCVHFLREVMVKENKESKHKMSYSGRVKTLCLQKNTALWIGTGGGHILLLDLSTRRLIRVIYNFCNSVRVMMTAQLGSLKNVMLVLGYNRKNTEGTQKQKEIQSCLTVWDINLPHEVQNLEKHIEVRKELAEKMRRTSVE

Row | IC50 [nM] | Structure (SMILES)
1 | < 10 | CCNc1nc(Nc2ccc(C(=O)N3CCN(C4COC4)CC3)cc2OC)nc2[nH]cc(C#N)c12 [Example 58, 4-(ethylamino)-2-((2-methoxy-4-(4-(oxetane-3-yl)piperazine-1-carbonyl)phenyl)amino)-7H-pyrrolo[2,3-d]pyrimidine-5-carbonitrile]
2 | 10 to 100 | COc1cc(C(=O)NC2CCN(C3COC3)CC2)c(F)cc1Nc1nc(NC2(C)CC2)c2c(C#N)c[nH]c2n1 [Example 81, 4-((5-cyano-4-((1-methylcyclopropyl)amino)-7H-pyrrolo[2,3-]pyrimidine-2-yl)amino)-2-fluoro-5-methoxy-N-(1-(oxetane-3-yl)piperidine-4-yl)benzamide]
3 | 10 to 100 | COc1cc(C(=O)N2CCC(N3CCOCC3)CC2)c(F)cc1Nc1nc(NC2CC2)c2c(C#N)c[nH]c2n1 [Example 19, 4-(cyclopropylamino)-2-((5-fluoro-2-methoxy-4-(4-morpholinopiperidine-1-carbonyl)phenyl)amino)-7H-pyrrolo[2,3-d]pyrimidine-5-carbonitrile]
4 | < 10 | COc1cc(C(=O)N2CCOCC2)ccc1Nc1nc(O[C@@H]2CCOC2)c2c(C#N)c[nH]c2n1 [Example 89, (R)-2-((2-methoxy-4-(morpholine-4-carbonyl)phenyl)amino)-4-((tetrahydrofuran-3-yl)oxy)-7H-pyrrolo[2,3-d]pyrimidine-5-carbonitrile]
5 | < 10 | CNc1nc(Nc2cc(F)c(C(=O)NC3CCN(C(C)C)CC3)cc2OC)nc2[nH]cc(C#N)c12 [Example 67, 4-((5-cyano-4-(methylamino)-7H-pyrrolo[2,3-d]pyrimidine-2-yl)amino)-2-fluoro-N-(1-isopropylpiperidine-4-yl)-5-methoxybenzamide]
6 | < 10 | COc1cc(C(=O)N2CCOCC2)ccc1Nc1nc(OC(C)C)c2c(C#N)c[nH]c2n1 [Example 90, 4-isoprofoxy-2-((2-methoxy-4-(morpholine-4-carbonyl)phenyl)amino)-7H-pyrrolo[2,3-d]pyrimidine-5-carbonitrile]
7 | < 10 | CNc1nc(Nc2ccc(C(=O)N3CCC(F)(F)CC3)cc2OC)nc2[nH]cc(C#N)c12 [Example 23]
8 | < 10 | CNc1nc(Nc2cnn([C@H]3CCN(C4COC4)C[C@@H]3F)c2Cl)nc2[nH]cc(C#N)c12 [Example 50, 2-((5-chloro-1-((3S,4S)-3-fluoro-1-(oxetane-3-yl)piperidine-4-yl)-1H-pyrazole-4-yl)amino)-4-(methylamino)-7H-pyrrolo[2,3-d]pyrimidine-5-carbonitrile]
9 | 10 to 100 | CCNc1nc(Nc2ccc(C(=O)N3CCOCC3)cc2OC)nc2[nH]cc(C(F)(F)F)c12 [Example 105, (4-((4-(ethylamino)-5-(trifluoromethyl)-7H-pyrrolo[2,3-d]pyrimidine-2-yl)amino)-3-methoxyphenyl)(morpholino)methanone]
10 | < 10 | COc1cc(C(=O)N2CCOCC2)c(F)cc1Nc1nc(OC2(C)CC2)c2c(C#N)c[nH]c2n1 [Example 97, 2-((5-fluoro-2-methoxy-4-(morpholine-4-carbonyl)phenyl)amino)-4-(1-methylcyclopropoxy)-7H-pyrrolo[2,3-d]pyrimidine-5-carbonitrile]
11 | 10 to 100 | CCNc1nc(Nc2ccc(C(=O)NC3CCN(C4COC4)CC3)cc2OC)nc2[nH]cc(C#N)c12 [Example 60, 4-((5-cyano-4-(ethylamino)-7H-pyrrolo[2,3-d]pyrimidine-2-yl)amino)-3-methoxy-N-(1-(oxetane-3-yl)piperidine-4-yl)benzylamide]
12 | < 10 | CNc1nc(Nc2ccc(C(=O)NC3CCN(C)CC3)cc2OC)nc2[nH]cc(C#N)c12 [Example 55, 4-((5-cyano-4-(methylamino)-7H-pyrrolo[2,3-d]pyrimidine-2-yl)amino)-3-methoxy-N-(1-methylpiperidine-4-yl)benzamide]
13 | 10 to 100 | CCNc1nc(Nc2cc3c(cc2OC)N(C)C(=O)C(C)(C)O3)nc2[nH]cc(C#N)c12 [Example 131, 4-(ethylamino)-2-((6-methoxy-2,2,4-trimethyl-3-oxo-3,4-dihydro-2H-benzo[b][1,4]oxazine-7-yl)amino)-7H-pyrrolo[2,3-d]pyrimidine-5-carbonitrile]
14 | 10 to 100 | CNc1nc(Nc2cn(C)nc2C)nc2[nH]cc(C#N)c12 [Example 28, 6-((1,3-dimethyl-1H-pyrazole-4-yl)amino)-4-(methylamino)-1H-pyrrolo[2,3-b]pyrimidine-3-carbonitrile]
15 | < 10 | CCNc1nc(Nc2ccc(C(=O)N3CCO[C@H](C)C3)cc2OC)nc2[nH]cc(C#N)c12 [Example 25, (R)-4-(ethylamino)-2-((2-methoxy-4-(2-methylmorpholine-4-carbonyl)phenyl)amino)-7H-pyrrolo[2,3-d]pyrimidine-5-carbonitrile]
16 | < 10 | CCNc1nc(Nc2cnn([C@H]3CCN(C4COC4)C[C@@H]3F)c2Cl)nc2[nH]cc(C#N)c12 [Example 51, 2-((5-chloro-1-((3S,4S)-3-fluoro-1-(oxetane-3-yl)piperidine-4-yl)-1H-pyrazole-4-yl)amino)-4-(ethylamino)-7H-pyrrolo[2,3-d]pyrimidine-5-carbonitrile]
17 | < 10 | CNc1nc(Nc2cnn(C(C)(C)C#N)c2Cl)nc2[nH]cc(C#N)c12 [Example 73, 2-((5-chloro-1-(2-cyanopropane-2-yl)-1H-pyrazole-4-yl)amino)-4-(methylamino)-7H-pyrrolo[2,3-d]pyrimidine-5-carbonitrile]
18 | 10 to 100 | CCNc1nc(Nc2ccc(C(=O)N3CCO[C@H](C)C3)cc2OC)nc2[nH]cc(C(F)(F)F)c12 [Example 108, (R)-(4-((4-(ethylamino)-5-(trifluoromethyl)-7H-pyrrolo[2,3-d]pyrimidine-2-yl)amino)-3-methoxyphenyl)(2-methylmorpholino)methanone]
19 | < 10 | CNc1nc(Nc2cc(F)c(C(=O)N3CCC(N4CCOCC4)CC3)cc2OC)nc2[nH]cc(C#N)c12 [Example 11, 2-((5-fluoro-2-methoxy-4-(4-morpholinopiperidine-1-carbonyl)phenyl)amino)-4-(methylamino)-7H-pyrrolo[2,3-d]pyrimidine-5-carbonitrile]
20 | < 10 | CCNc1nc(Nc2cnn(CCOC)c2Cl)nc2[nH]cc(C#N)c12 [Example 62, 2-((5-chloro-1-(2-methoxyethyl)-1H-pyrazole-4-yl)amino)-4-(ethylamino)-7H-pyrrolo[2,3-d]pyrimidine-5-carbonitrile]
21 | < 10 | CNc1nc(Nc2cc(F)c(C(=O)NC3CCN(C)CC3)cc2OC)nc2[nH]cc(C#N)c12 [Example 65, 4-((5-cyano-4-(methylamino)-7H-pyrrolo[2,3-d]pyrimidine-2-yl)amino)-2-fluoro-5-methoxy-N-(1-methylpiperidine-4-yl)benzamide]
22 | < 10 | COc1cc(C(=O)N2CCOCC2)ccc1Nc1nc(OC2CCOCC2)c2c(C#N)c[nH]c2n1 [Example 84, 2-((2-methoxy-4-(morpholine-4-carbonyl)phenyl)amino)-4-((tetrahydro-2H-pyran-4-yl)oxy)-7H-pyrrolo[2,3-d]pyrimidine-5-carbonitrile]
23 | < 10 | CCNc1nc(Nc2ccc(C(=O)N3C[C@@H](C)O[C@@H](C)C3)cc2OC)nc2[nH]cc(C#N)c12 [Example 24, 2-((4-((2R,6S)-2,6-dimethylmorpholine-4-carbonyl)-2-methoxyphenyl)amino)-4-(ethylamino)-7H-pyrrolo[2,3-d]pyrimidine-5-carbonitrile]
